From publication PMC11725581, “Developing novel Lin28 inhibitors by computer aided drug design” (Cell Death Discovery, 2025)
Numbering of substitutions follows the chain as printed.

Assays:
Lin28b ZKD [1] = molecular target: T1, Lin28b ZKD (Homo sapiens, UniProt Q6ZN17); experiment: Fluorescence polarization (FP) assay, Lin28b ZKD:pre-let-7d interaction; type: binding; conditions: for IC50: 10 nM pre-let-7d probe, 1 μM Lin28b ZKD; for activity in protein-based assays: FP / EMSA
T1 sequence (Q6ZN17 127-166 limits assumed): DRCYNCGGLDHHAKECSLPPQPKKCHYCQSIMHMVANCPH
Description: (§1) We conducted two biochemical assays, FP and EMSA, to validate the predicted compounds. To optimize the FP assays, we performed a series of titrations using: (1) FAM-labeled pre-let-7d RNA probe, (2) Lin28b ZKD protein, and (3) non-labeled pre-let-7 probe as a competitor (Fig. 2A). These assays yielded the optimal concentrations required for the subsequent FP validation assays, namely 10 nM for the pre-let-7d probe and 1 μM for Lin28b ZKD protein. The FP signal from the free probe was set as 0%, while the signal from the probe-ZKD complex in the absence of compounds was set as 100%. C1632 was used as a control Lin28 inhibitor (Fig. 2B). […] Since the docking pocket is almost identical between Lin28a and Lin28b homologs, we repeated the FP assays using Lin28a ZKD (Figure S2).
(§2) The fluorescein amidites (FAM)-tagged pre-Let-7d probe with the sequence of […] was purchased from Integrated DNA Technologies (IDT). The probe at the concentrations ranging from 1 nM to 50 uM was incubated with Lin28B (ZKD) or Lin28 (CSD+ZKD) to a final volume of 30 uL at room temperature for 20 min. To read the fluorescence, a TECAN 500 machine was used. Fluorescence polarization was calculated using the following equation:
P=(Fparrallel−Fperpendicular)/(Fparrallel+FperpendicularP)
where P is the fluorescence polarization reading, F parallel is the fluorescence intensity acquired from the parallel excitation plane, and F perpendicular is the fluorescence intensity acquired from the perpendicular direction of the excitation plane. The total fluorescence intensity is estimated using the following equation:
F=Fparallel+2FperpendicularF.
(§3) All the raw FP signal data from the TECAN 500 FP results were analyzed using Prism 8.0 (GraphPad, San Diego, CA, USA); normalized curves were plotted and IC50 values were estimated. All FP data were repeated three to five times.
Figure S1. Lin28b ZKD protein was incubated with the indicated compounds at the concentration of 0, 0.1, 0.2, 0.5, 1, 2, 5, 10, 20, 50, 100, and 200uM. FP signals were measured and plotted relative to that from vehicle.

Lin28a ZKD = molecular target: T2, Lin28a ZKD (Homo sapiens, UniProt Q9H9Z2); experiment: Fluorescence polarization (FP) assay, Lin28a ZKD:pre-let-7 interaction; type: binding; conditions: 0-200 uM
T2 sequence (Q9H9Z2 137-176 limits assumed): T1 sequence (Q6ZN17 127-166 limits assumed) with S17K, Y27F, M32S, N37S, H40L
Description: as §1
as §2, with “equation: […]” for “equation:”
as §3
Figure S2. Lin28a ZKD protein was incubated with the indicated compounds at the concentration of 0, 0.1, 0.2, 0.5, 1, 2, 5, 10, 20, 50, 100, and 200uM. FP signals were measured and plotted relative to that from vehicle.

[2] = tested on: Lin28b protein expression in DuNE cells; experiment: Lin28b protein levels by immunoblotting in DuNE cells; type: cell-based; conditions: 20uM, 72 h
Description: We further tested whether the 13 candidate compounds could penetrate the cell membrane, endure cell-mediated metabolism and excretion, and inhibit Lin28 activities inside cancer cells. […] Since let-7 and Lin28b mutually regulate each other’s expression, increased let-7 expression by Lin28 inhibitors would suppress Lin28b protein levels.
Fig. 3 Validate CADD predicted compounds by cell-based assays. A, B DuNE cells were treated with Lin28b inhibitors for 72 h. Let-7d RNA levels were measured by real-time qPCR (A) and Lin28b protein levels were measured by immunoblotting (B). […] Cell proliferation rates were measured by Incucyte. D Overlay of 1H-15N HSQC spectra for Lin28b-ZKD (black), Lin28b-ZKD + Ln15 (orange), and Lin28b-ZKD + Ln268 (blue). Ligands were added in a 20:1 molar ratio. Approximately 20 residues are seen to shift (from black to orange/blue), with ca. 5 resonances disappearing for Lin28b-ZKD in the presence of Ln268. E Overlay of the 20 NMR models for 2CQF (gray) and 2LI8 (blue) showing the rearrangement of residues 137–160 in going from Lin28b-ZKD alone to the conformation with RNA present. The conformation of Lin28b-ZKD in the presence of the ligands described herein might resemble that of 2LI8, but with a larger conformational spread. All results are presented as the mean ± SD.
Total RNA was extracted by TRIZOL reagent (Invitrogen), treated with deoxyribonuclease and reversely transcribed by random hexamers and superscript II (Invitrogen). Real-time qPCR was performed on the ABI PRISM 7900 HT system (Applied Biosystems) using the FastStart Universal SYBR Green Master mix (Roche) following standard protocol as we reported. All real-time qPCR assays were carried out in triplicates from three independent cDNA syntheses. For immunoblotting assays, whole cell lysis was extracted by a buffer containing 50mM of Tris pH8.0, 150mM of NaCl, 1% NP40, 0.5% sodium deoxycholate, 0.1% SDS and proteinase and phosphatase inhibitors (Roche). Protein lysis separated by SDS-PAGE, transferred to polyvinylidene difluoride membrane, and blotted by specific antibodies.

Lin28b ZKD [3] = molecular target: T1, Lin28b ZKD; experiment: EMSA, Lin28b ZKD:pre-let-7d complex formation; type: binding; conditions: 1 μM Lin28 ZKD, 10 nM IRDye800-labeled pre-let-7d probe
Description: We next validated the newly developed compounds using EMSA, a non-florescent-based assay to detect Lin28b ZKD:pre-let-7 complex formation. Similar to the FP assays, we first optimized the experimental conditions by titrating: (1) IRDye800-labeled pre-let-7d RNA probe, (2) Lin28b ZKD protein, and (3) non-labeled pre-let-7 probe as a competitor (Fig. 2C). For the validation experiments, 1 μM Lin28 ZKD and 10 nM of IRDye800-labeled pre-let-7d probe were mixed with each candidate compound. Compounds C1632 and Ln15 were used as control Lin28 inhibitors, respectively. […] Regardless, we use these two biochemical assays to shortlist the most promising compounds for further characterization. […] While our inhibitors directly target the Lin28 ZKD, it is unclear whether C1632 may bind to domains other than the ZKD or allosterically disrupt Lin28’s capacity to bind its RNA substrates.
EMSA followed the standard protocols we published. An IRDye800CWN-labeled pre-Let-7d RNA probe (5’-IRD800CWN-[…]-3’) was purchased from IDT (Coralville, IA, USA). Lin28a or Lin28b proteins were incubated with 300 nM of probe in a standard 20 uL EMSA reaction in a reaction buffer containing 20 mM HEPES-NaOH, pH 7.4, 2 mM DTT, 3 mM MgCl2, 0.05% NP-40, protease inhibitors, and 0.1 ug poly[dI:dC]. After incubation for 30 min at 37 °C, reactions were loaded onto 4% non-denatured polyacrylamide gel in 0.5× TBE buffer. The RNA oligo bands were visualized by using the Li-Cor Odyssey 9120 Infrared Imaging System.

| activity in protein-based assays (Lin28b ZKD [1]) | potency in blocking the Lin28a ZKD:pre-let-7 interaction (FP) relative to parents (Lin28a ZKD) | Compound | effect on Lin28b protein expression [2] | inhibition of Lin28b ZKD:pre-let-7d complex formation (EMSA) (Lin28b ZKD [3]) | further results |
| --- | --- | --- | --- | --- | --- |
|  |  | O=c1cccc(-c2nc(=O)c3cc(O)c(F)cc3[nH]2)[nH]1 [Ln115] |  |  | IC50 (Lin28b ZKD [1]): 21 µM |
|  |  | CC(C)(C)c1ccc(O)c(Nc2cccc(=O)[nH]2)c1 [Ln250] |  |  | FP potency relative to Ln15 (Lin28b ZKD [1]; FP assays used for SAR guided design): outperformed Ln15 |
| higher potency in FP assays | more potent than Ln15 and Ln115 | CC(C)c1cc(Nc2csc(=O)[nH]2)c(O)cc1O [Ln267] | suppressed Lin28b protein expression |  | IC50 (Lin28b ZKD [1]): 4.67 µM |
|  |  | Cc1cccc(Nc2csc(=O)[nH]2)c1O [Ln269] | suppressed Lin28b protein expression | capable of inhibiting Lin28:pre-let-7d complex formation in a dose-dependent manner |  |
|  | more potent than Ln15 and Ln115 | O=c1cccc(-c2nc3cc(F)c(O)c(F)c3c(=O)[nH]2)[nH]1 [Ln272] | suppressed Lin28b protein expression |  |  |
|  |  | Cc1c(F)c(O)c(F)c2c(=O)[nH]c(-c3cccc(=O)[nH]3)nc12 [Ln273] | suppressed Lin28b protein expression |  |  |
|  |  | Cc1cc2[nH]c(-c3cccc(=O)[nH]3)nc(=O)c2cc1O [Ln274] |  | capable of inhibiting Lin28:pre-let-7d complex formation in a dose-dependent manner |  |
| inactive |  | Cc1cc(-c2nc(=O)c3cc(O)c(F)cc3[nH]2)[nH]c(=O)c1 [Ln275] |  |  |  |
|  |  | O=c1cccc(-c2nc(=O)c3cc(O)c(CO)cc3[nH]2)[nH]1 [Ln276] |  | capable of inhibiting Lin28:pre-let-7d complex formation in a dose-dependent manner |  |
| inactive |  | CN(C)c1ccc(=O)[nH]c1-c1nc(=O)c2cc(O)c(F)cc2[nH]1 [Ln277] |  |  |  |
| active | more potent than Ln15 and Ln115 | Cn1cnc2c(=O)[nH]c(-c3nc(=O)c4cc(O)c(F)cc4[nH]3)cc21 [Ln279] |  | capable of inhibiting Lin28:pre-let-7d complex formation in a dose-dependent manner |  |
| inactive |  | Cc1cc(O)cc2c(=O)nc(-c3nccc(=O)[nH]3)[nH]c12 [Ln282] |  |  |  |
| inactive |  | O=c1cccc(Nc2ccc(O)cc2O)[nH]1 [Ln295] |  |  |  |
| inactive |  | O=c1cccc(Nc2ccccc2O)[nH]1 [Ln296] |  |  |  |
| active | more potent than Ln15 and Ln115 | O=c1cccc(Nc2ncc(O)cc2O)[nH]1 [Ln298] | suppressed Lin28b protein expression | capable of inhibiting Lin28:pre-let-7d complex formation in a dose-dependent manner |  |
| active | more potent than Ln15 and Ln115 | O=c1cccc(Nc2ccncc2O)[nH]1 [Ln300] | suppressed Lin28b protein expression | capable of inhibiting Lin28:pre-let-7d complex formation in a dose-dependent manner |  |
|  | more potent than Ln15 and Ln115 | Cc1c(O)cnc(Nc2cccc(=O)[nH]2)c1O [Ln302] |  | capable of inhibiting Lin28:pre-let-7d complex formation in a dose-dependent manner | IC50 (Lin28b ZKD [1]): 3.63 µM |
|  | more potent than Ln15 and Ln115 | O=c1cccc(Nc2cccc(O)c2O)[nH]1 [Ln306] |  | capable of inhibiting Lin28:pre-let-7d complex formation in a dose-dependent manner |  |
